Publication PMC9224473 (International Journal of Molecular Sciences, 2022)
≈ marks a conversion by molar mass, not a printed value.

Columns and labels:
E. coli 510 = assay: MIC, broth microdilution, clinical strain; type: cell-based, Escherichia coli; conditions: Escherichia coli, 510, 19 h, 35 °C
S. aureus T 5591 = assay: MIC, broth microdilution, clinical strain; type: cell-based, Staphylococcus aureus; conditions: Staphylococcus aureus, T5591, 19 h, 35 °C
P. aeruginosa ATCC 15442 = assay: MIC, broth microdilution, standard strain; type: cell-based, Pseudomonas aeruginosa; conditions: Pseudomonas aeruginosa, ATCC15442, 19 h, 35 °C
S. aureus ATCC 25923 = assay: MIC, broth microdilution, standard strain; type: cell-based, Staphylococcus aureus; conditions: Staphylococcus aureus, ATCC25923, 19 h, 35 °C
E. coli 600 = assay: MIC, broth microdilution, clinical strain; type: cell-based, Escherichia coli; conditions: Escherichia coli, 600, 19 h, 35 °C
P. aeruginosa 659 = assay: MIC, broth microdilution, clinical strain; type: cell-based, Pseudomonas aeruginosa; conditions: Pseudomonas aeruginosa, 659, read-out: MIC P. aeruginosa 659, 19 h, 35 °C
[1] = system: S. epidermidis ATCC 35984; assay: MIC, broth microdilution, standard strain; type: cell-based, Staphylococcus epidermidis; conditions: Staphylococcus epidermidis, ATCC35984, 19 h, 35 °C
S. epidermidis KR 4243 = assay: MIC, broth microdilution, clinical strain; type: cell-based, Staphylococcus epidermidis; conditions: Staphylococcus epidermidis, KR4243, 19 h, 35 °C
S. aureus ATCC 29213 = assay: MIC, broth microdilution, standard strain; type: cell-based, Staphylococcus aureus; conditions: Staphylococcus aureus, ATCC29213, 19 h, 35 °C
S. pasteuri KR 4358 = assay: MIC, broth microdilution, clinical strain; type: cell-based, Staphylococcus pasteuri; conditions: Staphylococcus pasteuri, KR4358, 19 h, 35 °C
[2] = system: S. epidermidis ATCC 12228; assay: MIC, broth microdilution, standard strain; type: cell-based, Staphylococcus epidermidis; conditions: Staphylococcus epidermidis, ATCC12228, 19 h, 35 °C
E. coli 520 = assay: MIC, broth microdilution, clinical strain; type: cell-based, Escherichia coli; conditions: Escherichia coli, 520, 19 h, 35 °C
[3] = system: HaCaT (human immortal keratinocyte cell line); assay: MTT cytotoxicity assay; type: cell-based; conditions: Homo sapiens, HaCaT, 72 h, mean SD, read-out: IC50 HaCaT (normal cells)
Protocol: (§1) The human cell lines SW480 (primary colon cancer), SW620 (lymph node metastatic colon cancer from the same patient as primary cancer cells), HCT116 (colon carcinoma), HepG2 (liver cancer), and HaCaT (immortalized keratinocytes) were obtained from the American Type Culture Collection (ATCC, Rockville, MD, USA). The SW480, SW620 and HCT116 cells were grown in MEM (ThermoSci, Waltham, MA, USA), HepG2 and HaCaT in DMEM High Glucose (Biowest SAS, Nuaillé, France) supplemented with 10% foetal bovine serum (FBS), HEPES (20 mM), and antibiotics (100 U mL^−1 of Penicillin and 100 μg mL^−1 of Streptomycin). The cells were incubated in a humidified incubator at 37 °C/5% CO2, until 80–90% confluence was reached.
(§2) The cell viability was assessed by using of MTT salt [3-(4,5-dimethylthiazol-2-yl)-2,5-diphenyltetrazolium bromide] converted by mitochondrial dehydrogenase, occurring in living cells. The cells were seeded in 96-well plates at a density of 1 × 10^4 cells per well and allowed to adhere for 24 h at 37 °C in a CO2 humidified incubator. […]. The untreated cells were used as the control.
(§3) After 72 h incubation, the medium was replaced with 200 µL per well of free-serum medium containing 0.5 mg mL^−1 MTT and incubated for 4 h at 37 °C in a CO2 humidified incubator. Subsequently, the medium was removed and dimethyl sulfoxide (DMSO) with isopropanol (1:1) was added to dissolve the formazan crystals. The optical density was measured using UVM 340 reader (ASYS Hitech GmbH, Eugendorf, Austria) at a wavelength of 570 nm. The experiments were repeated three times. The cell viability was calculated as the percent of MTT reduced in treated cells versus control cells (untreated cells). The number of viable cells cultured without tested compounds was assumed as 100%. A decreased relative MTT level indicates decreased cell viability. The IC50 values were estimated using CompuSyn version 1.0.

[4] = system: SW480 (human primary colon cancer); assay: MTT cytotoxicity assay; type: cell-based; conditions: Homo sapiens, SW480, 72 h, mean SD
Protocol: as §1, §2, §3

[5] = system: HepG2 (human liver cancer); assay: MTT cytotoxicity assay; type: cell-based; conditions: Homo sapiens, HepG2, 72 h, mean SD
Protocol: as §1, §2, §3

[6] = system: HCT116 (human colon cancer); assay: MTT cytotoxicity assay; type: cell-based; conditions: Homo sapiens, HCT-116, 72 h, mean SD
Protocol: as §1, §2, §3

S. aureus ATCC 6538 = assay: MIC, broth microdilution, standard strain; type: cell-based, Staphylococcus aureus; conditions: Staphylococcus aureus, ATCC6538, 19 h, 35 °C
S. aureus NCTC 4163 = assay: MIC, broth microdilution, standard strain; type: cell-based, Staphylococcus aureus; conditions: Staphylococcus aureus, NCTC4163, 19 h, 35 °C
E. coli ATCC 25922 = assay: MIC, broth microdilution, standard strain; type: cell-based, Escherichia coli; conditions: 35 °C; for MIC: Escherichia coli, ATCC25922, 19 h; for MIC E. coli ATCC 25922: 19 h
S. aureus T 5595 = assay: MIC, broth microdilution, clinical strain; type: cell-based, Staphylococcus aureus; conditions: Staphylococcus aureus, T5595, 19 h, 35 °C
[7] = system: SW620 (human metastatic colon cancer); assay: MTT cytotoxicity assay; type: cell-based; conditions: Homo sapiens, SW-620, 72 h, mean SD
Protocol: as §1
The cell viability was assessed by using of MTT salt [3-(4,5-dimethylthiazol-2-yl)-2,5-diphenyltetrazolium bromide] converted by mitochondrial dehydrogenase, occurring in living cells. […] The untreated cells were used as the control.
as §3, with “Subsequently,” for “After 72 h incubation, the medium was replaced with 200 µL per well of free-serum medium containing 0.5 mg mL^−1 MTT and incubated for 4 h at 37 °C in a CO2 humidified incubator. Subsequently,”

CC(C)[C@@H]1CC[C@@H](C)C[C@H]1OC(=O)CN1CCN(c2cc3c(cc2F)c(=O)c(C(=O)O)cn3C2CC2)CC1 [Compound 2, 1-cyclopropyl-6-fluoro-7-{4-[2-((1R,2S,5R)-2-isopropyl-5-methylcyclohexyloxy)-2-oxoethyl]piperazin-1-yl}-4-oxo-1,4-dihydroquinoline-3-carboxylic acid]
MIC (E. coli 510): > 256 µg/mL | MIC (S. aureus T 5591): 16 µg/mL (≈ 30.3 µM) | MIC (P. aeruginosa ATCC 15442): 128 µg/mL (≈ 243 µM) | MIC (S. aureus ATCC 25923): 16 µg/mL (≈ 30.3 µM) | MIC (E. coli 600): 16 µg/mL (≈ 30.3 µM) | MIC (P. aeruginosa 659): 128 µg/mL (≈ 243 µM) | MIC [1]: 16 µg/mL (≈ 30.3 µM) | MIC (S. epidermidis KR 4243): 16 µg/mL (≈ 30.3 µM) | MIC (S. aureus ATCC 29213): 16 µg/mL (≈ 30.3 µM) | MIC (S. pasteuri KR 4358): 16 µg/mL (≈ 30.3 µM) | MIC [2]: 16 µg/mL (≈ 30.3 µM) | MIC (E. coli 520): 16 µg/mL (≈ 30.3 µM) | IC50 [3]: 25.7 ± 3 µM | IC50 [4]: 36 ± 2.9 µM | IC50 [5]: 16.5 ± 0.4 µM | IC50 [6]: 32.3 ± 1.5 µM | MIC (S. aureus ATCC 6538): 16 µg/mL (≈ 30.3 µM) | MIC (S. aureus NCTC 4163): 16 µg/mL (≈ 30.3 µM) | MIC (E. coli ATCC 25922): 8 µg/mL (≈ 15.2 µM) | MIC (S. aureus T 5595): 16 µg/mL (≈ 30.3 µM) | IC50 [7]: 26.7 ± 0.2 µM

CC(C)[C@@H]1CC[C@@H](C)C[C@H]1OC(=O)CCN1CCN(c2cc3c(cc2F)c(=O)c(C(=O)O)cn3C2CC2)CC1 [Compound 3, 1-cyclopropyl-6-fluoro-7-{4-[3-((1R,2S,5R)-2-isopropyl-5-methylcyclohexyloxy)-3-oxopropyl]piperazin-1-yl}-4-oxo-1,4-dihydroquinoline-3-carboxylic acid]
MIC (E. coli 510): 256 µg/mL (≈ 473 µM) | MIC (S. aureus T 5591): 4 µg/mL (≈ 7.38 µM) | MIC (P. aeruginosa ATCC 15442): 32 µg/mL (≈ 59.1 µM) | MIC (S. aureus ATCC 25923): 4 µg/mL (≈ 7.38 µM) | MIC (E. coli 600): 4 µg/mL (≈ 7.38 µM) | MIC (P. aeruginosa 659): 64 µg/mL (≈ 118 µM) | MIC [1]: 4 µg/mL (≈ 7.38 µM) | MIC (S. epidermidis KR 4243): 4 µg/mL (≈ 7.38 µM) | MIC (S. aureus ATCC 29213): 4 µg/mL (≈ 7.38 µM) | MIC (S. pasteuri KR 4358): 4 µg/mL (≈ 7.38 µM) | MIC [2]: 4 µg/mL (≈ 7.38 µM) | MIC (E. coli 520): 4 µg/mL (≈ 7.38 µM) | IC50 [3]: 45.5 ± 5.1 µM | IC50 [4]: 30.3 ± 1.2 µM | IC50 [5]: 36.8 ± 3.8 µM | IC50 [6]: 27.1 ± 3.1 µM | MIC (S. aureus ATCC 6538): 4 µg/mL (≈ 7.38 µM) | MIC (S. aureus NCTC 4163): 4 µg/mL (≈ 7.38 µM) | MIC E. coli ATCC 25922 (E. coli ATCC 25922): 4 µg/mL (≈ 7.38 µM) | MIC (E. coli ATCC 25922): 2 to 4 µg/mL (≈ 3.69 to 7.38 µM) | MIC (S. aureus T 5595): 4 µg/mL (≈ 7.38 µM) | IC50 [7]: 38.6 ± 3.8 µM

CC(C)[C@@H]1CC[C@@H](C)C[C@H]1OC(=O)CCCN1CCN(c2cc3c(cc2F)c(=O)c(C(=O)O)cn3C2CC2)CC1 [Compound 4, 1-cyclopropyl-6-fluoro-7-{4-[4-((1R,2S,5R)-2-isopropyl-5-methylcyclohexyloxy)-4-oxobutyl]piperazin-1-yl}-4-oxo-1,4-dihydroquinoline-3-carboxylic acid]
MIC (E. coli 510): 256 µg/mL (≈ 461 µM) | MIC (S. aureus T 5591): 4 µg/mL (≈ 7.2 µM) | MIC (P. aeruginosa ATCC 15442): 64 µg/mL (≈ 115 µM) | MIC (S. aureus ATCC 25923): 4 µg/mL (≈ 7.2 µM) | MIC (E. coli 600): 4 µg/mL (≈ 7.2 µM) | MIC (P. aeruginosa 659): 256 µg/mL (≈ 461 µM) | MIC [1]: 4 µg/mL (≈ 7.2 µM) | MIC (S. epidermidis KR 4243): 4 µg/mL (≈ 7.2 µM) | MIC (S. aureus ATCC 29213): 4 µg/mL (≈ 7.2 µM) | MIC (S. pasteuri KR 4358): 4 µg/mL (≈ 7.2 µM) | MIC [2]: 4 µg/mL (≈ 7.2 µM) | MIC (E. coli 520): 8 µg/mL (≈ 14.4 µM) | IC50 [3]: 30.5 ± 2.4 µM | IC50 [4]: 36.8 ± 2.6 µM | IC50 [5]: 35.1 ± 4.4 µM | IC50 [6]: 24.2 ± 0.1 µM | MIC (S. aureus ATCC 6538): 4 µg/mL (≈ 7.2 µM) | MIC (S. aureus NCTC 4163): 4 µg/mL (≈ 7.2 µM) | MIC E. coli ATCC 25922 (E. coli ATCC 25922): 4 µg/mL (≈ 7.2 µM) | MIC (E. coli ATCC 25922): 2 to 4 µg/mL (≈ 3.6 to 7.2 µM) | MIC (S. aureus T 5595): 4 µg/mL (≈ 7.2 µM) | IC50 [7]: 54.3 ± 4.1 µM

COc1cccc2c1C(=O)c1c(O)c3c(c(O)c1C2=O)C[C@@](O)(C(=O)CO)C[C@@H]3O[C@H]1C[C@H](N)[C@H](O)[C@H](C)O1 [Doxorubicin, reference compound]
IC50 [3]: 0.29 ± 0.1 µM | IC50 [4]: 0.75 ± 0.1 µM | IC50 [5]: 0.38 µM | IC50 [6]: 0.59 ± 0.02 µM
